Reference: US20230240297A1, “SELECTIVE HERBICIDES BASED ON SUBSTITUTED ISOXAZOLIN CARBOXAMIDES AND CYPROSULFAMIDE” (Bayer Aktiengesellschaft, priority 2020, published 2023)

Legend:
[1] = tested on: ZEAMA Sileno; test: Seed treatment with safener; post-emergence herbicide application; type: in vivo, maize; design: Reduction [Difference]: scale not given here; conditions: Final assessment; for Reduction [%] / Reduction [Difference]: Cyprosulfamide 0.5 g a.i./kg seed; for Reduction [Difference]: damage without safener - damage with safener; for HER effect + SAF (crop damage with safener): Cyprosulfamide seed treatment 0.5 g a.i./kg seed; for HER effect (crop damage, herbicide without safener): no safener
Experimental: For the safener seed treatment, sufficient seeds of the respective crops (spring wheat, TRZAS; spring barley, HORVS; maize, ZEAMA) were weighed into screw top glass bottles approximately twice the volume of the seeds.
The specified safeners, formulated as wettable powder (WP) were weighed out so that the specified rates (g a.i./kg seed) would be obtained, dissolved in water (1 ml water per 10 g of seeds), and added to the seeds to produce a slurry.
The bottles were capped and then placed in an overhead shaker (set at medium speed for ca. 60 minutes) so that the seeds were evenly coated with the slurry. The bottles were uncapped and the seeds were either placed on paper and dried for an interval of 3-4 hours prior to sowing, or directly sown. Seeds were placed in sandy loam soil in pots of a diameter of 7-8 cm, covered with soil, and cultivated in a greenhouse under good growth conditions.
Post-emergence application of the specified herbicides was done when the plants had reached growth stage BBCH11-13, on two sets of plants:
a) seed treatment with safener, as described above b) no safener treatment
The herbicides were formulated as WP and sprayed onto the green parts of the plants as an aqueous suspension at an equivalent water application rate of 300 1/ha, with addition of wetting agent and adjuvants (e.g. Mero, 1.5 1/ha; ammonium sulphate, 2 kg/ha)
After application, the test plants were kept in the greenhouse under good growth conditions.
Values in the table below are mean values of at least 2 replicates.

[2] = tested on: ZEAMA Sileno; test: Tank-mix; post-emergence, crop damage with and without safener; type: in vivo, maize; conditions: for HER effect + SAF / HER effect: Final assessment; for HER effect: no safener
Experimental: Seeds of crops (spring wheat, TRZAS; spring barley, HORVS; maize, ZEAMA) were placed in sandy loam soil in peat pots, covered with soil and cultivated in a greenhouse under good growth conditions. Two to three weeks after sowing, the test plants were treated at the 1 to 3-leaf stage. The herbicide/safener active compound combinations according to the invention, formulated as wettable powders or emulsion concentrates, and, in parallel tests, the correspondingly formulated individual active compounds were sprayed onto the green parts of the plants in various dosages using an amount of water of 300 1/ha (converted).
The pots were returned under good growing conditions in a glasshouse and a visual assessment of herbicidal effects was made at intervals from 1 to 3 weeks after herbicide application (DAT = days after treatment). Assessment was on a percentage basis in comparison with untreated control plants (0% = no injury, 100% = complete kill).

[3] = HER 8 g a.i./ha, cyprosulfamide 50 g a.i./ha
[4] = HER 32 g a.i./ha, cyprosulfamide 100 g a.i./ha
[5] = HER dose 8 g a.i./ha + cyprosulfamide 50 g a.i./ha tank-mix
[6] = HER dose 32 g a.i./ha + cyprosulfamide 100 g a.i./ha tank-mix

SMILES	Reduction [%] ([1]; HER dose 8 g a.i./ha)	Reduction [Difference] ([1]; HER dose 8 g a.i./ha)	HER effect + SAF (crop damage with safener) ([1]; HER dose 8 g a.i./ha)	HER effect (crop damage, herbicide without safener) ([1]; HER dose 8 g a.i./ha)	Reduction [%] ([1]; HER dose 32 g a.i./ha)	Reduction [Difference] ([1]; HER dose 32 g a.i./ha)	HER effect + SAF (crop damage with safener) ([1]; HER dose 32 g a.i./ha)	HER effect (crop damage, herbicide without safener) ([1]; HER dose 32 g a.i./ha)	Reduction [%] [2, 3]	Reduction [Difference] [2, 3]	Reduction [%] [2, 4]	Reduction [Difference] [2, 4]	HER effect + SAF [2, 5]	HER effect ([2]; HER dose 8 g a.i./ha)	HER effect + SAF [2, 6]	HER effect ([2]; HER dose 32 g a.i./ha)	further results
C=CC1(C(=O)NC2COC(C(=O)OCCOC)C2)CC(c2cc(F)cc(F)c2)=NO1 (mixture of isomers) [Example 1.66]	100%	96	0%	96%	97%	94	3%	97%	76%	73	54%	52	23%	96%	45%	97%	Reduction [%] ([1]; HER dose 2 g a.i./ha): 100%; Reduction [Difference] ([1]; HER dose 2 g a.i./ha): 33; HER effect + SAF (crop damage with safener) ([1]; HER dose 2 g a.i./ha): 0%; HER effect (crop damage, herbicide without safener) ([1]; HER dose 2 g a.i./ha): 33%; Reduction [%] ([2]; HER 2 g a.i./ha, cyprosulfamide 50 g a.i./ha): 79%; Reduction [Difference] ([2]; HER 2 g a.i./ha, cyprosulfamide 50 g a.i./ha, damage without safener - damage with safener): 26; HER effect + SAF ([2]; HER dose 2 g a.i./ha + cyprosulfamide 50 g a.i./ha tank-mix): 7%; HER effect ([2]; HER dose 2 g a.i./ha, 0% = no injury, 100% = complete kill): 33%
C=CCOC(=O)C1CC(NC(=O)C2(C)CC(c3cc(F)cc(F)c3)=NO2)CO1 (mixture of isomers) [Example 1.75]	100%	73	0%	73%	89%	78	10%	88%	62%	45	66%	58	28%	73%	30%	88%	–
C=CCOC(=O)C1CC(NC(=O)C2(C=C)CC(c3cc(F)cc(F)c3)=NO2)CO1 (mixture of isomers) [Example 1.83]	100%	62	0%	62%	96%	82	3%	85%	73%	45	73%	62	17%	62%	23%	85%	–
COC(=O)C1(C)CC(NC(=O)C2(C(C)(F)F)CC(c3cc(F)cc(F)c3)=NO2)CO1 (mixture of isomers) [Example 1.94]	100%	91	0%	91%	93%	87	7%	94%	89%	81	76%	71	10%	91%	23%	94%	–
COCCOC(=O)C1C=CC(NC(=O)C2(C(F)(F)F)CC(c3cc(F)cc(C#N)c3)=NO2)C1 (stereo not shown) [Example 1.2]	89%	80	10%	90%	81%	78	18%	96%	44%	40	48%	46	50%	90%	50%	96%	–
COCCOC(=O)C1C=CC(NC(=O)C2(C)CC(c3cc(Cl)cc(C#N)c3)=NO2)C1 (stereo not shown) [Example 1.5]	88%	75	10%	85%	79%	76	20%	96%	55%	47	50%	48	38%	85%	48%	96%	Reduction [%] ([1]; HER dose 2 g a.i./ha): 100%; Reduction [Difference] ([1]; HER dose 2 g a.i./ha): 23; HER effect + SAF (crop damage with safener) ([1]; HER dose 2 g a.i./ha): 0%; HER effect (crop damage, herbicide without safener) ([1]; HER dose 2 g a.i./ha): 23%
CCOC(=O)C1C=CC(NC(=O)C2(C(F)(F)F)CC(c3ccccc3)=NO2)C1 (stereo not shown) [Example 1.9]	100%	78	0%	78%	100%	85	0%	85%	87%	68	59%	50	10%	78%	35%	85%	–
